# Measurements reported in PMC3433162 (Analytical chemistry, 2012).
# Key:
# [1] = target: bovine carbonic anhydrase (BCA) (Bos taurus, UniProt P00921); test: biochemical; type: binding
# [2] = target: carbonic anhydrase; conditions: read-out: Kd or Ki; cited from earlier work
# Sequence of bovine carbonic anhydrase (BCA) (P00921 whole entry): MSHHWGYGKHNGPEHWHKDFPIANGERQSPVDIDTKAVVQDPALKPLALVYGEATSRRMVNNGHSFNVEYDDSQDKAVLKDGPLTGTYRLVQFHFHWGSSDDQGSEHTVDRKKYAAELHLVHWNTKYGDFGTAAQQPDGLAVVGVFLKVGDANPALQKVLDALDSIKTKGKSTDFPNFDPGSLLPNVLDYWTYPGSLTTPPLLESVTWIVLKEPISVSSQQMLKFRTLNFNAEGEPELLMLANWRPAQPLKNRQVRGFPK
Kd [1] [µM],Molecule,Kd [2] [µM]
0.29,Cc1ccc(S(N)(=O)=O)cc1 [4-methylbenzene sulfonamide],
,methane sulfonamide,70 to 320
